Source: PubChem BioAssay AID330 (DTP/NCI, 2004)
“And” between values parts separate entries of the source, which are not always exact repeats. Identical values can stand only once. Toxic doses and inconclusive results are not listed.

Tested on: P388 leukemia ip, CD2F1 mice, survival T/C
Experiment: NCI In Vivo Anticancer Drug Screen. Data for tumor model P388 Leukemia (intraperitoneal) in CD2F1 (CDF1) mice
Details: endpoint: median survival time, higher = longer survival
How it was run: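 Mice carrying the transplanted tumor received test compound or vehicle. Survival was recorded in each group, and the value is the treated-group measurement divided by that of the vehicle-treated control group.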

[1] = dose: 60.0 mg/kg/injection, schedule: Q01DX005 (ip), vehicle: Klucel (hydroxypropylcellulose) (HPC)
[2] = dose: 120.0 mg/kg/injection, schedule: Q01DX005 (ip), vehicle: Klucel (hydroxypropylcellulose) (HPC)
[3] = dose: 240.0 mg/kg/injection, schedule: Q01DX005 (ip), vehicle: Klucel (hydroxypropylcellulose) (HPC)
[4] = dose: 60.0 mg/kg/injection, schedule: Q01DX005 (ip), vehicle: saline with Tween-80
[5] = dose: 120.0 mg/kg/injection, schedule: Q01DX005 (ip), vehicle: saline with Tween-80
[6] = dose: 25.0 mg/kg/injection, schedule: Q01DX005 (ip), vehicle: Klucel (hydroxypropylcellulose) (HPC)
[7] = dose: 50.0 mg/kg/injection, schedule: Q01DX005 (ip), vehicle: Klucel (hydroxypropylcellulose) (HPC)
[8] = dose: 100.0 mg/kg/injection, schedule: Q01DX005 (ip), vehicle: Klucel (hydroxypropylcellulose) (HPC)
[9] = dose: 200.0 mg/kg/injection, schedule: Q01DX005 (ip), vehicle: Klucel (hydroxypropylcellulose) (HPC)
[10] = dose: 50.0 mg/kg/injection, schedule: Q01DX009 (ip), vehicle: saline with Tween-80
[11] = dose: 100.0 mg/kg/injection, schedule: Q01DX009 (ip), vehicle: saline with Tween-80
[12] = dose: 200.0 mg/kg/injection, schedule: Q01DX009 (ip), vehicle: saline with Tween-80
[13] = dose: 50.0 mg/kg/injection, schedule: Q01DX005 (ip), vehicle: saline with Tween-80
[14] = dose: 100.0 mg/kg/injection, schedule: Q01DX005 (ip), vehicle: saline with Tween-80
[15] = dose: 25.0 mg/kg/injection, schedule: Q01DX009 (ip), vehicle: other
[16] = dose: 12.5 mg/kg/injection, schedule: Q04DX002 (ip), vehicle: saline with Tween-80

## Cc1cc(C)c(OC(=O)N(CCCl)N=O)c(C)c1
dose: 3.12 mg/kg/injection, schedule: Q01DX001 (ip), vehicle: saline with Tween-80
  T/C: 111 % of control
dose: 6.25 mg/kg/injection, schedule: Q01DX001 (ip), vehicle: saline with Tween-80
  T/C: 116 % of control

## CC1(C)OC(=O)N=C1c1ccccc1Cl
[1]
  T/C: 108 % of control
[2]
  T/C: 104 % of control
[3]
  T/C: 108 % of control

## N/C(=N\OC(=O)Nc1ccccc1)c1ccccc1
[4]
  T/C: 97 % of control
[5]
  T/C: 94 % of control
dose: 240.0 mg/kg/injection, schedule: Q01DX005 (ip), vehicle: saline with Tween-80
  T/C: 91 % of control

## CC1=C(N2CCOCC2)C(N2CCOCC2)=C(C)C(=O)C1=O
dose: 12.5 mg/kg/injection, schedule: Q01DX005 (ip), vehicle: Klucel (hydroxypropylcellulose) (HPC)
  T/C: 108 % of control
[6]
  T/C: 101 % of control
[7]
  T/C: 108 % of control
[8]
  T/C: 97 % of control
[9]
  T/C: 96 % of control

## O=C1c2ccc[n+]3c2-c2c1ccc[n+]2CC3
dose: 12.5 mg/kg/injection, schedule: Q01DX001 (ip), vehicle: saline
  T/C: 108 % of control
dose: 25.0 mg/kg/injection, schedule: Q01DX001 (ip), vehicle: saline
  T/C: 115 % of control
dose: 50.0 mg/kg/injection, schedule: Q01DX001 (ip), vehicle: saline
  T/C: 101 % of control

## OCCN(CCO)c1cc(/C=C/c2c3ccccc3cc3ccccc23)nc2ccccc12
[10]
  T/C: 89 % of control
[11]
  T/C: 93 % of control
[12]
  T/C: 92 % of control

## C(=C\c1ccnnc1)/c1ccccc1
dose: 50.0 mg/kg/injection, schedule: Q01DX009 (ip), vehicle: saline
  T/C: 97 % of control
dose: 100.0 mg/kg/injection, schedule: Q01DX009 (ip), vehicle: saline
  T/C: 106 % of control
dose: 200.0 mg/kg/injection, schedule: Q01DX009 (ip), vehicle: saline
  T/C: 101 % of control

## CN1C(=O)C/C(=C\N2CCCCC2)C1=O
[13]
  T/C: 98 % of control
[14]
  T/C: 102 % of control

## COC(=O)c1ccc(SCCC(=O)CCl)cc1
[10]
  T/C: 115 % of control
[11]
  T/C: 116 % of control

## Cc1ccc(NC(=O)N(CCCl)N=O)c(C)c1
dose: 16.5 mg/kg/injection, schedule: Q04DX003 (ip), vehicle: saline with Tween-80
  T/C: 190 % of control
dose: 25.0 mg/kg/injection, schedule: Q04DX003 (ip), vehicle: saline with Tween-80
  T/C: 250 % of control
dose: 37.5 mg/kg/injection, schedule: Q04DX003 (ip), vehicle: saline with Tween-80
  T/C: 90 % of control

## C[Si](C)(C)CSCCO
[13]
  T/C: 106 % of control
[14]
  T/C: 104 % of control
dose: 200.0 mg/kg/injection, schedule: Q01DX005 (ip), vehicle: saline with Tween-80
  T/C: 100 % of control

## C[N+]1=C(c2ccc(Br)cc2)OCC1(C)C
[15]
  T/C: 104 % of control
dose: 50.0 mg/kg/injection, schedule: Q01DX009 (ip), vehicle: other
  T/C: 101 % of control
dose: 100.0 mg/kg/injection, schedule: Q01DX009 (ip), vehicle: other
  T/C: 97 % of control
dose: 200.0 mg/kg/injection, schedule: Q01DX009 (ip), vehicle: other
  T/C: 101 % of control
dose: 400.0 mg/kg/injection, schedule: Q01DX009 (ip), vehicle: other
  T/C: 101 % of control

## CCCCS[Si](SC(C)(C)C)(SC(C)(C)C)SC(C)(C)C
dose: 100.0 mg/kg/injection, schedule: Q04DX002 (ip), vehicle: suspension in saline
  T/C: 95 % of control
dose: 200.0 mg/kg/injection, schedule: Q04DX002 (ip), vehicle: suspension in saline
  T/C: 99 % of control
dose: 400.0 mg/kg/injection, schedule: Q04DX002 (ip), vehicle: suspension in saline
  T/C: 93 % of control

## O=C(O)CC(OC(=O)CP(=O)(O)O)C(=O)O (stereo unspecified)
dose: 100.0 mg/kg/injection, schedule: Q04DX002 (ip), vehicle: saline
  T/C: 105 % of control
dose: 200.0 mg/kg/injection, schedule: Q04DX002 (ip), vehicle: saline
  T/C: 93 % of control
dose: 400.0 mg/kg/injection, schedule: Q04DX002 (ip), vehicle: saline
  T/C: 102 % of control

## COc1cc(C(c2cc3c(cc2O)OCO3)N2CCOCC2)ccc1O (stereo unspecified)
[4]
  T/C: 116 % of control
[5]
  T/C: 106 % of control

## O=NC1C(=O)NC(=S)NC1=O
[16]
  T/C: 100 % of control

## CCO/C=C1\SC(=S)N(c2ccccc2OC)C1=O
dose: 88.0 mg/kg/injection, schedule: Q01DX009 (ip), vehicle: saline with Tween-80
  T/C: 118 % of control
dose: 100.0 mg/kg/injection, schedule: Q04DX003 (ip), vehicle: saline with Tween-80
  T/C: 104 % of control
dose: 132.0 mg/kg/injection, schedule: Q01DX009 (ip), vehicle: saline with Tween-80
  T/C: 119 % of control
dose: 178.0 mg/kg/injection, schedule: Q04DX003 (ip), vehicle: saline with Tween-80
  T/C: 118 % of control
[12]
  T/C: 112 % of control
dose: 200.0 mg/kg/injection, schedule: Q04DX003 (ip), vehicle: saline with Tween-80
  T/C: 109 % of control
dose: 266.0 mg/kg/injection, schedule: Q04DX003 (ip), vehicle: saline with Tween-80
  T/C: 118 % of control
dose: 400.0 mg/kg/injection, schedule: Q04DX003 (ip), vehicle: saline with Tween-80
  T/C: 122 % of control

## Brc1ccc2c(ccc3nc4nnnn4nc32)c1
[1]
  T/C: 94 % of control
[2]
  T/C: 90 % of control
[3]
  T/C: 86 % of control

## CC[C@@H](C)C(=O)O[C@H]1[C@H](O)[C@H]2[C@@H](CN3C[C@@H](C)CC[C@H]3[C@@]2(C)O)[C@@H]2CC34O[C@]5(O)[C@@H](OC(=O)[C@@](C)(O)CC)CC[C@@]3(C)[C@@H]5[C@@H](OC(C)=O)[C@@H](OC(C)=O)[C@H]4[C@@]21O
dose: 0.1 mg/kg/injection, schedule: Q01DX005 (ip), vehicle: saline
  T/C: 102 % of control
dose: 0.4 mg/kg/injection, schedule: Q01DX005 (ip), vehicle: saline with Tween-80
  T/C: 100 % of control
dose: 25.0 micrograms/kg/injection, schedule: Q01DX005 (ip), vehicle: saline
  T/C: 97 % of control
dose: 50.0 micrograms/kg/injection, schedule: Q01DX005 (ip), vehicle: saline
  T/C: 94 % of control
dose: 100.0 micrograms/kg/injection, schedule: Q01DX005 (ip), vehicle: saline
  T/C: 94 % of control

## CCCCOc1cc(N)nc2ccccc12
[16]
  T/C: 95 % of control
dose: 25.0 mg/kg/injection, schedule: Q04DX002 (ip), vehicle: saline with Tween-80
  T/C: 100 % of control
dose: 50.0 mg/kg/injection, schedule: Q04DX002 (ip), vehicle: saline with Tween-80
  T/C: 99 % of control

## CCOC(=O)/C(C(C)=O)=C1/c2c(ccc(OC)c2OC)C=C2c3cc4c(cc3CCN21)OCO4
dose: 0.63 mg/kg/injection, schedule: Q01DX009 (ip), vehicle: water
  T/C: 105 % of control
dose: 1.25 mg/kg/injection, schedule: Q01DX009 (ip), vehicle: water
  T/C: 108 % of control
dose: 2.5 mg/kg/injection, schedule: Q01DX009 (ip), vehicle: water
  T/C: 101 % of control
dose: 5.0 mg/kg/injection, schedule: Q01DX009 (ip), vehicle: water
  T/C: 124 % of control
dose: 10.0 mg/kg/injection, schedule: Q01DX009 (ip), vehicle: water
  T/C: 101 % of control
dose: 20.0 mg/kg/injection, schedule: Q01DX009 (ip), vehicle: water
  T/C: 107 % of control

## Cc1csnn1
dose: 15.0 mg/kg/injection, schedule: Q01DX005 (ip), vehicle: saline with Tween-80
  T/C: 105 % of control
dose: 30.0 mg/kg/injection, schedule: Q01DX005 (ip), vehicle: saline with Tween-80
  T/C: 100 % of control
[4]
  T/C: 102 % of control

## COc1ccc(CC#N)c(OC)c1
dose: 12.5 mg/kg/injection, schedule: Q01DX009 (ip), vehicle: other
  T/C: 102 % of control
[15]
  T/C: 102 % of control

## Cc1nc(Nc2ccccc2)c2c(C)c[nH]c2n1
[7]
  T/C: 100 % of control
[8]
  T/C: 94 % of control

## CN(C)C1C(=O)C(C(=O)NC[N+]23CCO[B-]2(c2ccc(Cl)cc2)OCC3)=C(O)C2(O)C(=O)C3=C(O)c4c(O)cccc4C(C)(O)C3CC12 (stereo unspecified)
[6]
  T/C: 111 % of control
[7]
  T/C: 107 % of control and 108 % of control and 110 % of control
[8]
  T/C: 108 % of control (2×) and 114 % of control
[9]
  T/C: 108 % of control and 119 % of control and 120 % of control

## CCCCN(c1ccc(Br)cc1)c1nc(N)nc(N)c1N=O
[6]
  T/C: 103 % of control
[7]
  T/C: 99 % of control
[8]
  T/C: 102 % of control
[9]
  T/C: 98 % of control
